Laboratory results reported in a melting point compilation (Tetko et al.; mined from patent text by program, amines drawn as free bases though some values may be those of a salt).

| SMILES | melting point |
| --- | --- |
| CC(C)CCC1CCCCc2c1oc(=O)c(C(c1ccccc1)C1CC1)c2O (configuration not stated) | 67 to 77 °C |
| CCOC(=O)NCCOc1cc(Oc2ccc(C(F)(F)F)cc2Cl)ccc1[N+](=O)[O-] | 70 to 71 °C |
| COc1ccc(CCNC(=O)C(F)(F)F)c2c1NC(=O)C2=O | 234 to 237 °C |
| CC(C)(C)NC(=O)N1CCN(c2ccc3ncc(Br)n3n2)CC1 | 199 to 200 °C |
| CCOC(=O)[C@H](CCc1ccccc1)NC(=O)C(C)(C)NC(=O)[C@@H](S)C1CCOCC1 | 157 to 158 °C |
| CN1C(=O)[C@H](NC(=O)CNc2ccc(C(F)(F)F)cc2)N=C(c2ccccc2)c2ccccc21 | 218 to 219 °C |
| O=C1Cc2cc(-c3cccc([N+](=O)[O-])c3)ccc2N1 | 269 °C |
| Cc1ccc(C(O)C2C(c3ccccc3)CC(=O)N2C)s1 (configuration not stated) | 185 to 188 °C |
| CNc1c(C)c(C)c(OC(C)=O)c(C)c1N | 113 to 116 °C |
| CCOC(=O)C(=NO)c1csc(C)n1 | 90 to 92 °C |
| CN(C)C(=O)C(C)(C)n1ccc(-c2ccccc2)n1 | 99.5 to 102 °C |
| Nc1cnc(F)c(Br)c1 | 91 to 92 °C |
| CS(=O)c1ccc2c(c1)OC(C)(C)O2 (configuration not stated) | 87 to 88 °C |
| CNC(=S)C1(c2cccnn2)CCCS1 (configuration not stated) | 199 °C |
| CCCc1nc2c(N)nc3ccc(Br)cc3c2s1 | 177 to 180 °C |
| CCN(CC1CCN(C(N)=O)CC1)C(C)Cc1ccc(OC)cc1 (configuration not stated) | 104 to 110 °C |
| CN1OCC(=Cc2cc(C(C)(C)C)c(O)c(C(C)(C)C)c2)C1=O | 194 to 196 °C |
| O=P(Oc1ccccc1)(Oc1ccccc1)C1(N2CCOCC2)CCCCC1 | 103 to 106 °C |
| CC(=O)Oc1ccc(C2CCC(=O)CC2)cc1 | 104 to 106 °C |
| O=C1NCCN1c1cn(-c2cccnc2)nc1Cl | 167 to 170 °C |

| SMILES | melting point |
| --- | --- |
| COC(=O)[C@H](CO)NC(=O)[C@@H]1CCCN1C(=O)OCc1ccccc1 | 97 to 100 °C |
| O=C(O)CN1C(=O)C(=CC=Cc2ccccc2)SC1=S | > 217 °C |
| CS(=O)(=O)c1ccc(-c2cnn(CC(F)(F)F)c(=O)c2NC2CCCO2)cc1 (configuration not stated) | 128 to 129 °C |
| C=C(C)Cc1c(O)c(C)c(C)c2c1CC(C)(C)N2C=O | 116 to 118 °C |
| CCCCCCCCCCN(O)C(=O)NCC(=O)OCC | 70 to 71 °C |
| CC(=O)NC[C@H]1CN(c2ccc(C3CCN(C(=O)c4ccno4)CC3)c(F)c2)C(=O)O1 | 290 to 292 °C |
| COc1cc2c(cc1-c1c(C)nn(C)c1C)-c1c(-c3cccs3)c3c(n1CC2)C(=O)N(C(C)C)CCN(C(=O)OC(C)(C)C)C3 | 232 to 234 °C |
| CCOC(=O)C1=C(COCCNC(N)=S)NC(C)=C(C(=O)OC)C1c1ccccc1Cl (configuration not stated) | 204 °C |
| Cc1cc(N2CCN(C(=O)N3CCN(S(=O)(=O)c4ccc(Br)cc4)CC3)CC2)ncn1 | 215 to 216 °C |
| CCCC(=O)Nc1nn(COCC[Si](C)(C)C)c2cc(Cl)c(Br)cc12 | 130 °C |
| CN(C)CCCN(C)C(=O)c1cc([N+](=O)[O-])c[nH]1 | 118 to 120 °C |
| CCN(CC)Cc1nc(-c2ncn3c2CN(C)C(=O)c2cc(F)ccc2-3)no1 | 172 to 174 °C |
| COC(=O)COc1ccc(C(C)=O)cc1C | 51 to 53 °C |
| CC(C)c1ccc2c(c1)C=C(/C=C/C=C/C=C/C(=O)O)CO2 | 244 to 246 °C |
| CN(C)c1ccc(C2NCCc3sccc32)cc1 (configuration not stated) | 95 to 98 °C |
| Cc1c(CCC(=O)O)c[nH]c1C=O | 128 to 134 °C |
| C#Cc1c(C#N)nn(-c2c(Cl)cc(C(F)(F)F)cc2Cl)c1Cl | 109 to 110 °C |
| COc1cc(Cl)cc2c1CCC2 | 38 to 40 °C |
| CC(C)(C)NC(=O)NC1=CC(=O)CCC1 | 223 to 225 °C |

Next, values leading:

| melting point | SMILES |
| --- | --- |
| 233 to 234 °C | COC(=O)c1cc(C(=O)NN2CCCCC2)c2cc(Cc3ccc(F)cc3)cnc2c1O |
| 174 to 175 °C | O=C(NCc1ccc2ccccc2c1)C1=C(C(=O)Nc2cc(OC3CCCC3)c(Cl)cc2F)CCCC1 |
| 182 to 184 °C | Cc1ccc(C=CC(=O)C=Cc2ccc([N+](=O)[O-])cc2)cc1 |
| 189 to 190 °C | CSc1nn2c(N3CCN(CCO)CC3)cc(C)nc2c1S(=O)(=O)c1ccccc1 |
| 267 °C | CN(C)c1ccc(-c2[nH]nc3c2C(=O)c2c(NC(=O)CN4CCC(O)CC4)cccc2-3)cc1 |
| 198 to 204 °C | O=[N+]([O-])c1cnc2ccc(-c3ccccc3)cc2c1Nc1ccccc1Br |
| 105 to 106 °C | CCCCCCOc1cc(-c2cccc(N)c2)c(OCCCCCC)cc1-c1cccc(N)c1 |
| > 350 °C | O=c1[nH]c2cc(Cl)ccc2c(O)c1-c1cccc2ccccc12 |
| 184 to 187 °C | O=C1N(c2ccc(C(F)(F)F)cc2)CN2C(c3ccc(Cl)cc3)C(c3ccccc3)CN12 (configuration not stated) |
| 248 °C | CCCCCOc1ccc(-c2ccc(-c3ccc(C(=O)OC)cc3)cc2)cc1 |
| 218 to 219 °C | CCOC(=O)c1ccc(CC(=O)Nc2csc3nc(C(=O)NCc4cccc(OC)c4)[nH]c(=O)c23)cc1 |
| 134 to 135 °C | Cc1oc(-c2ccc3ccccc3c2)nc1COc1ccc(CCCCn2cncn2)cc1 |
| 205 to 206 °C | CN(C(=O)CN1C(=O)c2ccccc2S1(=O)=O)c1ccccc1 |
| 178 to 181 °C | O=C(O)COc1c(-c2cccc(Cl)c2)cc(C(=O)NCCCCCCc2ccccc2)cc1-c1cccc(Cl)c1 |
| 197 to 198 °C | CN(c1cccc2cc(-c3ncc(COCC(=O)O)s3)[nH]c12)S(=O)(=O)c1cccs1 |
| > 345 °C | O=C1NC(=O)c2c1c(-c1ccccc1)cc1c2c2cc(O)ccc2n1CCn1ccnc1 |
| 215 to 218 °C | O=C(O)c1ccccc1N1CCN(CC(O)COc2cccc3ccccc23)CC1 (configuration not stated) |

| melting point | SMILES |
| --- | --- |
| 297 to 298 °C | Cc1ccc(-n2c(-c3ccc(C=Cc4ccccc4)cc3)ccc2-c2ccc(C=Cc3ccccc3)cc2)cc1 |
| > 300 °C | O=c1c2cc(-c3nnn[nH]3)ccc2sc2ncccc12 |
| 150 to 155 °C | NC(=O)n1ccc(-c2ccc(Sc3ccc(F)cc3)cc2)n1 |
| 227 to 229 °C | O=C(NN=Cc1ccc(Br)cc1)c1[nH]c2ccccc2c1Cc1ccccc1 |
| > 400 °C | O=C(O)c1cccn2c(-c3ccc(F)cc3)cnc12 |
| 213 to 216 °C | COc1ccc(-c2c3c(cc4ccc(OCc5ccccc5)cc24)C(=O)NC3)cc1 |
| 88.5 to 90.5 °C | CC(C)(C)OC(=O)N1CCc2cc(-c3ccc(Cl)cc3)ccc2C1 |
| 131 to 134 °C | COc1ccc(-c2cn3ccccc3n2)cc1 |
| > 260 °C | O=C1c2ccccc2C(=O)c2oc(-c3ccccc3)nc21 |
| 128 to 130 °C | COc1ccccc1C1=C(NC(=O)Nc2ccc(N(C)C)cc2)SCc2ccccc21 |
| 217 to 220 °C | Cc1c(NC(=O)CC(C)(C)C)c(C)c2c(c1-c1ccc(N(C)C)nc1)OCC2c1ccc(C(C)C)cc1 (configuration not stated) |
| 149 to 150 °C | COc1ccc(C(=O)Nc2ccccc2)c(C)c1 |
| 158 to 159 °C | O=C(Nc1cccc2ccccc12)OCc1ccc(CO)cc1 |
| 187 to 188 °C | CC1(c2ccccc2)OC(C=Cc2ccc(C#N)cc2)=CC1=O (configuration not stated) |
| 172 °C | Cc1cc(O)nc(-c2cccc(-c3ccccc3)n2)n1 |
| 171 °C | O=C(O)c1nc(-c2ccccc2Cl)nc2ccccc12 |
